Measurements as given in article PMC12122428, “Discovery of non-covalent rhinovirus 3Cpro inhibitors by molecular docking, in vitro assays, molecular dynamics simulations and DFT analyses” (Frontiers in Pharmacology, 2025).
Like-named read-outs stand apart in the source and are kept apart here.

How the values were obtained:
HRV-14 3Cpro [1] = target: T1, HRV-14 3Cpro (Human rhinovirus 14, UniProt P03303); test: HRV-14 3Cpro enzyme inhibition assay (Dabcyl-[…]-Edans cleavage, fluorescence); format: biochemical; conditions: for inhibition at 50 µM / Inhibition % HRV 3Cpro @ 50 μM: 50 μM compound, single point; for IC50: concentration-response, 50 μM to 0.617 μM, n = 5, mean ± SEM
T1 construct: most efficiently processed substrate by HRV-14 3Cpro (Acro, Beijing, China); purchased Acro, Beijing, China
T1 sequence (P03303 1538-1719): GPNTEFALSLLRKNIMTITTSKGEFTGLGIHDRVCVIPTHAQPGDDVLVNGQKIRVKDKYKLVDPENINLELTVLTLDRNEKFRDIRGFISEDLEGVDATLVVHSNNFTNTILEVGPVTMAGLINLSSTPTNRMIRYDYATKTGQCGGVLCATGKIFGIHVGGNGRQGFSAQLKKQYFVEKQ
Description: In the in vitro cleavage assay, the peptide Dabcyl-[…]-Edans was identified as the most efficiently processed substrate by HRV-14 3Cpro (Acro, Beijing, China), and was subsequently utilized in the enzyme inhibition assay. A total of 44 candidate compounds were purchased from Topscience (TargetMol, United States). Dimethyl sulfoxide (DMSO) (Innochem, Beijing, China) served as the solvent for dissolving the compounds, and all solutions were stored at −20°C. The assays were conducted using 100 μL reaction samples, which comprised 1 μL of protease, 10 μL of a 10 μM substrate solution, and varying concentrations of the tested compounds (ranging from 50 μM to 0.617 μM) in a 50 mM Tris buffer at pH 7.0. To evaluate the inhibitory effects of the compounds, the protease and each compound were preincubated at 37°C for 30 min before the addition of the substrate. The reaction mixture was subsequently incubated for 1 h at 37°C. Fluorescence measurements were performed using a multifunction enzyme label reader (SpectraMax M5, Molecular Devices), set to an excitation wavelength of 340 nm and an emission wavelength of 490 nm. […] The inhibition rate was quantified according to the following formula: Inhibition rate 100%=RFUemzyme−RFUsample/RFUemzyme−RFUcontrol×100%

HRV-14 3Cpro [2] = target: T1, HRV-14 3Cpro; conditions: cited from earlier work
HRV-14 = conditions: ref Binford et al., 2007; Zalman et al., 2000; read-out: antiviral activity EC50; cited from earlier work

Row | Structure (SMILES) | inhibition at 50 µM (HRV-14 3Cpro [1]) [%] | Inhibition % HRV 3Cpro @ 50 μM (HRV-14 3Cpro [1]) [%] | IC50 (HRV-14 3Cpro [1]) [nM] | IC50 (HRV-14 3Cpro [2]; macrocyclic covalent inhibitor, ref Kawatkar et al., 2016, Namoto et al., 2018) [nM] | pIC50 (HRV-14 3Cpro [2]; non-covalent inhibitor, ref Baxter et al., 2011) | EC50 (HRV-14) [nM]
1 | Nc1c(NC(=O)NC[C@H]2CCCO2)c(-c2ccccc2)nn1-c1ccc(C(F)(F)F)cc1 [Compound S21] | 80.5 | 80.5 | 30400 ± 670 |  |  | 
2 | Cc1occc1C(=O)N[C@@H]1C(=O)N[C@@H](Cc2ccc(F)cc2)C(=O)N[C@H](C=O)CCC(=O)N(C)Cc2cccc1c2 [compound 10] |  |  |  | 8 |  | 
3 | CCOc1ccc(NC(=O)[C@H](CC(C)C)NC(=O)[C@H]2CC[C@@H](C)CC2)cc1 [Compound S34] | 75.6 | 75.5 | 24100 ± 550 |  |  | 
4 | O=c1cc(-c2cccnc2)[nH]c2cc(Cc3ccccc3)ccc12 [Compound 14] |  |  |  |  | 4.7 | 

The next lines start with results.

Row | inhibition at 50 µM (HRV-14 3Cpro [1]) [%] | Inhibition % HRV 3Cpro @ 50 μM (HRV-14 3Cpro [1]) [%] | IC50 (HRV-14 3Cpro [1]) [nM] | Structure (SMILES) | IC50 (HRV-14 3Cpro [2]; macrocyclic covalent inhibitor, ref Kawatkar et al., 2016, Namoto et al., 2018) [nM] | pIC50 (HRV-14 3Cpro [2]; non-covalent inhibitor, ref Baxter et al., 2011) | EC50 (HRV-14) [nM]
5 | 88.8 | 88.7 | 2330 ± 500 | CCC(CC)C(=O)Nc1cccc(C(=O)Nc2ccccc2C(=O)Nc2ccc(OC)cc2)c1 [Compound S43] |  |  | 
6 | 96.5 |  | 11300 ± 710 | O=C(COC(=O)[C@@H](CC(=O)c1ccccc1)Nc1ccc(F)cc1)c1ccccc1 [Compound S33] |  |  | 
7 |  |  | 220 ± 340 | CCOC(=O)/C=C/[C@H](C[C@@H]1CCNC1=O)NC(=O)[C@@H](CC(=O)[C@@H](NC(=O)c1cc(C)on1)C(C)C)Cc1ccc(F)cc1 [Rupintrivir, reference compound] |  |  | 12
